Assay results from US7901893B2, “NPC1L1 (NPC3) and methods of identifying ligands thereof” (Merck Sharp & Dohme Corp., priority 2004, dated 2011).
Entries after “also recorded” stand apart in the source; their conditions may differ. Where two headings read alike, the source gives them in different places. Blank lines part the entries; values can stand above or below the molecule they belong to.

Legend:
[1] = molecular target: T1, mouse intestinal brush border membranes (Mus musculus, UniProt Q6T3U4); test: Binding assay with mouse (wild type) brush border membrane vesicles
T1 construct: from tissue; host or cells: mouse small-intestinal mucosa (C57BL/6J; wild-type littermates in the knockout comparison), brush border membrane vesicles
Description: Glass fiber filters (GF/C) were obtained from Whatman.
For rhesus brush border membranes vesicles, 56 μg protein/assay were incubated with 25 nM ^3H-EZE-glucuronide in the presence of increasing concentrations of EZE-glucuronide and 2. For rat brush border membranes vesicles, 150 μg protein/assay were incubated with 50 nM ^3H-EZE-glucuronide in the presence of increasing concentrations of EZE-glucuronide and 2. For mouse brush border membranes vesicles, 20 μg protein/assay were incubated with 3 nM ^35S-2 in the presence of increasing concentrations of EZE-glucuronide and 2.
(§1) Brush border membranes vesicles were prepared from intestinal tissues of wild type and NPC1L1 knockout (−/−) mice. 15, 30 and 60 μg protein/assay of brush border membranes vesicles were incubated with 4 nM ^35S-2 in buffer A for 3 hours at 37° C. in the presence and absence of 100 μM EZE-glucuronide.
(§2) For FIG. 14A, enterocyte brush border membranes were prepared from NPC1L1 deficient male mice and same sex wild-type littermates, and tested for binding of 1. […] Membranes from wild type mice are on the left and from NPC1L1 deficient mice on the right.

[2] = system: brush border membranes from NPC1L1 knockout (−/−) mice; test: Binding assay with brush border membranes from NPC1L1 deficient mice; parameters: species or system mouse
Description: as §1, §2

human NPC1L1 = molecular target: T2, human NPC1L1 (Homo sapiens, UniProt Q9UHC9, G1187D/M616T/T1073A); test: Binding to membranes of HEK-293 cells expressing recombinant human NPC1L1; parameters: expressed in transfected cells; host or cells: HEK-293 cells (ATCC), transient, pCR3.1; membranes; settings: 0.03% sodium taurocholate and 0.05% digitonin; 1.25 mg protein/ml, 100 nM 1
T2 sequence (Q9UHC9 22-1332 isoform Q9UHC9-2 M616T/T1046A/G1160D limits assumed): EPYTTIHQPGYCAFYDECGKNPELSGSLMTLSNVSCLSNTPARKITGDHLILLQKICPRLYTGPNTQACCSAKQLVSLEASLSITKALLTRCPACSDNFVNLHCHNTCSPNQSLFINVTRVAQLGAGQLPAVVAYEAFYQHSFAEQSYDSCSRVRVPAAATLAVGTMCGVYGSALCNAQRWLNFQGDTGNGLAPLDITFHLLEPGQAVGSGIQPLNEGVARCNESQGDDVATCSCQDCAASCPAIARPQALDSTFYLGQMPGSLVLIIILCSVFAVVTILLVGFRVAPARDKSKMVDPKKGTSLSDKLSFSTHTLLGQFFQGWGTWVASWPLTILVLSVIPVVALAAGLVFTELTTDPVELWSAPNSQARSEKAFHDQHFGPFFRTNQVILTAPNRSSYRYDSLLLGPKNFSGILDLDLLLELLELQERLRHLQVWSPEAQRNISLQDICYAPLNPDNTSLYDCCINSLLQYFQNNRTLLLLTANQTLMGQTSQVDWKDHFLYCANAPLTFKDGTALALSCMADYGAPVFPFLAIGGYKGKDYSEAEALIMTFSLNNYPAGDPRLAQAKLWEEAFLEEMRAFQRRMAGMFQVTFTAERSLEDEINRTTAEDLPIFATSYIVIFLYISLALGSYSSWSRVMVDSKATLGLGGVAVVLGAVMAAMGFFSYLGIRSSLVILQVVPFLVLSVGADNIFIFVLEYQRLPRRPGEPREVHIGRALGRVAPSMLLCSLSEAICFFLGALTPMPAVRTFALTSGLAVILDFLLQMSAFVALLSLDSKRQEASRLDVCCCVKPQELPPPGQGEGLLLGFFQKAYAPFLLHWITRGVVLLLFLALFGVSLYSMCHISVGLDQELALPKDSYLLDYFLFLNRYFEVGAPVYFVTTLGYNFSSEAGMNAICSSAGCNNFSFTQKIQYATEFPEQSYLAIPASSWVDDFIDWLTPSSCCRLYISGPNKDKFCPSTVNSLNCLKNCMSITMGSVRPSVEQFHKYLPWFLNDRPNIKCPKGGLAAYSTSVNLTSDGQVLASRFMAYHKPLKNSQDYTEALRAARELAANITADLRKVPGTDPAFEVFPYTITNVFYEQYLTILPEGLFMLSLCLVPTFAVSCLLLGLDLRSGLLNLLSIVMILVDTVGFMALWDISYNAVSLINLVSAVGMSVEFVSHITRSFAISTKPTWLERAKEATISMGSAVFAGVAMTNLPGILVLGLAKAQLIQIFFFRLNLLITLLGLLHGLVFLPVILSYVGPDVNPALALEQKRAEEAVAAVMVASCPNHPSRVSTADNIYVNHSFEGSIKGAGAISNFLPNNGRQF
Description: (§3) Transient expression of NPC1L1. Plasmid pCR3.1 expressing rat NPC1L1 (Genbank AY437867) or human NPC1L1 (Genbank AY437865) were prepared using standard molecular biology protocols. HEK-293 cells (ATCC) were seeded at 10×10^6 cells per T-225 flask (Corning) in DMEM containing 10% fetal calf serum, 4.5 g/L D-glucose and L-glutamine, 18 hours prior to transfection. They were transiently transfected with 25 μg of DNA using Fugene transfection reagent (Roche Biochemical) at a ratio of 6:1 Fugene:DNA. Following transfection, the cells were incubated at 37° C. and 5% CO2 for 48 hours, and then harvested using PBS based cell dissociation buffer (Gibco), pelleted at 500×g, snap frozen on dry ice, and stored at −80° C.
(§4) Membrane preparation from HEK-293 cells. Membranes were prepared by resuspending the frozen cell pellets in ten volumes of 20 mM HEPES/Tris buffer at pH 7.40 containing 8% sucrose, and sonicating the suspensions with a probe sonicator on ice until most of the cells were lysed. To isolate the membranes, the sonicates were centrifuged at 1600×g for 10 min to remove cell debris, and then the supernatants were centrifuged at 125,000×g for 1 hour to recover the membranes. These membranes were resuspended in 20 mM HEPES/Tris buffer at pH 7.40 containing 160 mM NaCl and 5% glycerol, and stored at 10-20 mg/ml protein at −80° C.
(§5) Analog structures are defined in Table 12.

rat NPC1L1 = rat NPC1L1 (Rattus norvegicus, UniProt Q6T3U3); test: Binding to membranes of HEK-293 cells expressing recombinant rat NPC1L1; parameters: expressed in transfected cells; host or cells: HEK-293 cells (ATCC), transient, pCR3.1; membranes; settings: 0.03% sodium taurocholate and 0.05% digitonin; 1.25 mg protein/ml, 100 nM 1
Description: as §3, §4, §5

[3] = 3 nM ^35S-2, 20 μg protein/assay, read-out: inhibition constant Ki, Mouse

SMILES: CS(=O)(=O)NCC#Cc1ccc(N2C(=O)[C@H](CC[C@H](O)c3ccc(F)cc3)[C@H]2c2ccc(O[C@@H]3O[C@H](C(=O)O)[C@@H](O)[C@H](O)[C@H]3O)cc2)cc1 [Compound 2, 4-[(2S,3R)-3-[(3S)-3 (4-fluorophenyl)-3-hydroxypropyl]-1-(4-{3-[(methylsulfonyl)amino]prop-1-yn-1-yl}phenyl)-4-oxoazetidin-2-yl]phenyl β-D-glucopyranosiduronic acid]
affinity for mouse membranes (in words) [1]: enhanced affinity | Ki [1, 3]: 144 nM | binding to wild type control membranes ([1]; 4 nM ^35S-2): detectable binding | Kd ([1]; control (wild type) mouse membranes, 4 nM ^35S-2, 3 hours at 37° C.): 0.156 µM | binding to membranes from NPC1L1 deficient mice ([2]; 4 nM ^35S-2): no detectable binding

SMILES: O=C1[C@H](CC[C@H](O)c2ccc(F)cc2)[C@@H](c2ccc(O)cc2)N1c1ccc(F)cc1 [ezetimibe]
Kd ([1]; Table 11, mouse, absence of detergents): 12 µM

SMILES: O=C(O)[C@H]1O[C@@H](Oc2ccc([C@@H]3[C@@H](CC[C@H](O)c4ccc(F)cc4)C(=O)N3c3ccc(F)cc3)cc2)[C@H](O)[C@@H](O)[C@@H]1O [Compound 1, Ezetimibe glucuronide]
Ki (human NPC1L1): 220 nM | affinity for mouse membranes (in words) [1]: low affinity | Ki [1, 3]: 2300 nM | Kd ([1]; age-matched wild-type mice, 0.03% sodium taurocholate and 0.05% digitonin): 12 µM | IC50 ([1]; mouse, read-out: in vitro binding affinity (IC50)): 12 µM | Kd ([1]; murine membranes, text of b482): 10 µM | Ki ([1]; wild-type mice, 5 mg/ml protein, 500 nM 1, 0.03% taurocholate, 0.05% digitonin, read-out: Ki, competition of unlabeled ezetimibe glucuronide against 1): 12000 nM | specific binding to membranes from NPC1L1 deficient mice ([2]; 500 nM 1, 0.03% taurocholate, 0.05% digitonin): no detectable specific binding affinity; also recorded: virtually undetectable | Ki (rat NPC1L1): 210 nM

SMILES: O=C(O)[C@H]1O[C@@H](Oc2ccc([C@@H]3[C@@H](CCCc4ccc(F)cc4)C(=O)N3c3ccc(F)cc3)cc2)[C@H](O)[C@@H](O)[C@@H]1O [Compound 3]
Ki (human NPC1L1): 1000 nM | Ki (rat NPC1L1): 820 nM

Next, values leading:

Ki (human NPC1L1): 14000 nM | Ki (rat NPC1L1): 23000 nM
SMILES: O=C(CC[C@H]1C(=O)N(c2ccc(F)cc2)[C@@H]1c1ccc(O[C@@H]2O[C@H](C(=O)O)[C@@H](O)[C@H](O)[C@H]2O)cc1)c1ccc(F)cc1 [Compound 6]

Ki (human NPC1L1): 1300 nM | Ki (rat NPC1L1): 1700 nM
SMILES: O=C(O)[C@H]1O[C@@H](Oc2ccc([C@@H]3[C@@H](CC[C@@H](O)c4ccc(F)cc4)C(=O)N3c3ccc(F)cc3)cc2)[C@H](O)[C@@H](O)[C@@H]1O [Compound 5]

Ki (human NPC1L1): 130000 nM | Ki (rat NPC1L1): 74000 nM
SMILES: O=C(O)C1OC(Oc2ccc(C3C(CCC(O)c4ccc(F)cc4)C(=O)N3c3ccc(F)cc3)cc2)C(O)C(O)C1O (single isomer, unassigned) [Compound 4]
